Results published in patent US8986733B2, “Materials and methods for nerve repair” (University of Florida Research Foundation, Inc., priority 2001, dated 2015).

Key:
chick DRG neurons = assay: Cryoculture assay using human nerve segments; format: cell-based; conditions: DRG neurons 24 h on treated human nerve sections
Description: Human nerves were treated with chondroitinase and then assayed for neurite-promoting activity. Dissociated chick DRG neurons were grown on the sections for 24 h and neurite lengths were scored. Results are expressed as means (−SEM). Statistical significance (P<0.001) comparing vehicle-treated and chondroitinase-treated conditions was found using Student's t test.
Cryoculture bioassay. Cryoculture is a neurite outgrowth assay in which neurons are cultured directly on fresh/frozen nerve sections and was performed as described previously (Ferguson T A et al. [2000] Mol Cell Neurosci, 16:157-167). Briefly, chondroitinase- and vehicle-treated nerve segments were sectioned at 20 μm, mounted on sterile, aminopropyltriethoxysilane (APTS)-coated coverslips and stored at −20° C. until used. Where indicated, sections were treated with chondroitinase ABC (0.1 unit/ml) or vehicle (50 mM Tris-HCl, pH 8.0), containing 50 mM NaCl) for 2 h at 37° C. […] Neurite lengths were measured directly using IMAGE-PRO PLUS software (MEDIA CYBERNETICS, Silver Springs, Md.). At least 250 neurons with neurites greater than one cell body (˜15 μm) were scored for each condition in each experiment. […]

rat sciatic nerve = assay: Bilateral sciatic nerve transection (neurotmesis) and neurorrhaphic repair, GAP-43 axon scoring; format: in vivo; conditions: for axon regeneration / ingress into the distal segment vs vehicle-treated controls: 4 days after transection and repair
Description: Surgical procedures for nerve transection and nerve crush experiments. All surgical procedures were performed according to Institutional Animal Care and Use Committee (IACUC) approved protocols. Young adult SPRAGUE DAWLEY rats (HARLAN Indianapolis, Ind.) were deeply anesthetized with xylazine (15 mg/kg, i.m.) followed by ketamine-HCl (110 mg/kg, i.p.). Six animals received bilateral nerve crush injuries. Sciatic nerves were exposed and then crushed with firm pressure for thirty seconds with a DUMONT #5 forceps at a site 4 mm distal to the tendon of the internal obdurator. The crush site was marked with an epineurial suture. In a separate set of experiments, eight rats received bilateral sciatic nerve transection injuries using serrated scissors. The proximal and distal stumps were […] by epineurial neurorrhaphy using 9-0 ETHILON sutures. Fibrin glue (fibrinogen and thrombin) was then applied to stabilize the union. In both injury models, the right sciatic nerves were injected 2-mm distal to the injury with chondroitinase ABC (1 U in 2 μl) (high-purity, protease-free; SIGMA CHEMICAL CO., St. Louis, […].). Left sciatic nerves (with the same injury as the right side) were injected with vehicle alone (0.1% bovine serum albumin in PBS). Muscle incisions were sutured and the skin closed with metal clips. After recovery from the anesthetic, animals were returned to standard housing. Two days (for crush injury) and four days (for transection injury) after surgery, nerves were removed under anesthesia and fixed as described below. One of the eight animals receiving nerve transection and repair was excluded because loss of continuity in one nerve occurred during convalescence.
The hypothesis that chondroitinase treatment improves axonal growth through the site of nerve coaptation was tested. Bilateral neurotmesis was achieved by a scissor cut of the sciatic nerves which were then repaired by epineurial suture and fibrin glue. One nerve was injected with chondroitinase ABC and the contralateral nerve received vehicle alone. Because of the latency of regeneration after nerve transection, axonal growth across the coaptation was examined four days after injury. In control nerves, the ingress of axons occurred mainly in patches and was limited to discrete subsections of the distal nerve; otherwise only a few axons were found scattered throughout the remaining nerve cross-section, as shown in FIG. 14A. The number of axons extending farther into the distal (after 4 days) rapidly diminished and approached zero within 3 mm from the coaptation. In contrast, axon ingress into chondroitinase-treated nerves was more robust and widespread throughout the entire nerve cross-section. In 7/7 animals, the number of axons that entered the distal nerve was greater in the chondroitinase-treated nerve than in the control nerve. […] It was clear that axon growth in all portions of the distal nerve was strictly linear and aligned with the longitudinal axis of the nerve.

Q: Which “growth-promoting properties of human nerves (neurite length)” value (chick DRG neurons) does the source give for chondroitinase ABC here?
A: Its value is “increased”.

Q: What about the “animals in which number of axons entering distal nerve was greater than in control nerve” value (rat sciatic nerve; 4 days after injury) of the same substance?
A: Its value is 7/7.

Q: And the “increase in axon score immediately distal to coaptation in 3/7 animals” value (rat sciatic nerve; 4 days after injury, 3/7 animals)?
A: The value was “greater than 3.5 fold”.

Q: And the “score of axons immediately distal to the coaptation vs control” value (rat sciatic nerve; 4 days after injury, average)?
A: The value was “two-fold greater”.

Q: What about the “axon regeneration / ingress into the distal segment vs vehicle-treated controls” value (rat sciatic nerve) of the same substance?
A: Its value is “significantly greater”.

Q: What about the “axon regeneration / ingress into the distal segment vs vehicle-treated controls” value (rat sciatic nerve; listed as chondroitinase) of the same substance?
A: Its value is “increased several-fold”.
